Results from patent US20230150981A1, “N-HETEROARYLALKYL-2-(HETEROCYCLYL AND HETEROCYCLYLMETHYL) ACETAMIDE DERIVATIVES AS SSTR4 AGONISTS” (Takeda Pharmaceutical Compnay Limited, priority 2020, published 2023).

How the values were obtained:
SSTR4 [1] = target: T1, SSTR4 (Homo sapiens, UniProt P31391); experiment: Inhibition of forskolin stimulated cAMP in CHO-K1 cells overexpressing SSTR4; format: cell-based; settings: read-out: SSTR4 Activity pEC50 (converted)
T1 construct: host or cells: CHO-K1
T1 sequence (P31391 whole entry): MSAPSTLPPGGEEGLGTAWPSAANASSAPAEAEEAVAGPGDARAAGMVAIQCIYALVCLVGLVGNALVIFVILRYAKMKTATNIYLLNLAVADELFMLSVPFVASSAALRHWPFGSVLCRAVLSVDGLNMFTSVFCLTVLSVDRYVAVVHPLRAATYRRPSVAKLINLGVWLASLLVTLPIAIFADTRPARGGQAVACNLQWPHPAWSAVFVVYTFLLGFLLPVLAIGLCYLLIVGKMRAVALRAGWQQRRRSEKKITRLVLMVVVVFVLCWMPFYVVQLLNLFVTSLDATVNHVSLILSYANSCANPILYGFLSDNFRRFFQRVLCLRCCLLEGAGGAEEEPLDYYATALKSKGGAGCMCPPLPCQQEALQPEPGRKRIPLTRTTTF
Procedure, shortened: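 CHO-K1 cells overexpressing SSTR4 treated 30 min at room temperature with compound in Krebs Ringer buffer containing 0.5% BSA, 300 μM IBMX and 350 nM forskolin. Intracellular cAMP measured by HTRF LANCE Ultra (665/615 nm); pEC50 values reported.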

SSTR4 [2] = target: T1, SSTR4; experiment: SSTR4 I-125 somatostatin competition binding assay (CHO-K1 membranes); settings: competition with I-125 somatostatin, membranes from CHO-K1 overexpressing SSTR4; read-out: SSTR4 Binding pIC50 (converted)
Protocol: SSTR4 I-125 Somatostatin Competition Binding Assay
Membranes from CHO-K1 cells overexpressing SSTR4 are purchased from Perkin Elmer (catalog number ES-524-M400UA). Test compounds are suspended in DMSO and then diluted in assay buffer (25 mM HEPES pH 7.4, 10 mM MgCl2, 1 mM CaCl2), 0.5% BSA) plus 0.2 nM I-125 labeled somatostatin (Perkin Elmer catalog number NEX389). Fifty μL of compound/I-125 somatostatin in assay buffer are added per well to 96-well poly-propylene plate. Then 1 μg of SSTR4 membranes in 50 μL assay buffer are added per well. The Plate is incubated for 60 minutes at room temperature. FilterMat A filters (Perkin Elmer catalog number 1450-421) are pre-soaked in 0.5% PEI (Sigma catalog number P3143). The contents of the assay plate are transferred to filters with a TomTech harvester and washed 5 times with 20 mM HEPES, 100 mM NaCl. The filters are dried in a microwave oven then transferred to sample bag containing a scintillator sheet (Perkin Elmer catalog number 1450-441). The scintillator sheets are melted to filters using a heat block. The filters are then read in a MicroBeta scintillation counter. Binding Ki curves are generated using Activity Base for Screening Data Management and the results are reported as pIC50.

SSTR1 = target: T2, SSTR1 (Homo sapiens, UniProt P30872); experiment: SSTR1 I-125 somatostatin competition binding assay for selectivity versus SSTR1 (CHO-K1 membranes); settings: competition with I-125 somatostatin, membranes from CHO-K1 overexpressing SSTR1; read-out: SSTR1 Binding pIC50 (converted)
T2 construct: purchased Perkin Elmer ES-520-M400UA; host or cells: CHO-K1 membranes
T2 sequence (P30872 whole entry): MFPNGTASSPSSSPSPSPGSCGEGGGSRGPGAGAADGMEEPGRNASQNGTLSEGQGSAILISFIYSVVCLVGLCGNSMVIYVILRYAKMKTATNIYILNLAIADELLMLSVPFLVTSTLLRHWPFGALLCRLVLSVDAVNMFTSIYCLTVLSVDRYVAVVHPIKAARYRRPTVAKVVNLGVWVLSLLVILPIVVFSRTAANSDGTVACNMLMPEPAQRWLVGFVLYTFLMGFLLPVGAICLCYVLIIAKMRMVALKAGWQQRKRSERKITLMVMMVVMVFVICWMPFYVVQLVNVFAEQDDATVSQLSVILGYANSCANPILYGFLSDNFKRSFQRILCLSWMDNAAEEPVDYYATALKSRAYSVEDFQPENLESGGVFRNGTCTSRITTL
Protocol: SSTR1 I-125 Somatostatin Competition Binding Assay for Selectivity Versus SSTR1
Membranes from CHO-K1 cells overexpressing SSTR1 are purchased from Perkin Elmer (catalog number ES-520-M400UA). Test compounds are suspended in DMSO and then diluted in assay buffer (25 mM HEPES pH 7.4, 10 mM MgCl2, 1 mM CaCl2), 0.5% BSA) plus 0.4 nM I-125 labeled somatostatin (Perkin Elmer catalog number NEX389). Fifty μL of compound/I-125 somatostatin in assay buffer are added per well to 96-well poly-propylene plate. Then 10 μg of SSTR1 membranes in 50 μL assay buffer are added per well. The plate is incubated for 60 minutes at room temperature. FilterMat A filters (Perkin Elmer catalog number 1450-421) are pre-soaked in 0.5% PEI (Sigma catalog number P3143). The contents of the assay plate are transferred to filters with a TomTech harvester and washed 5 times with 20 mM HEPES, 100 mM NaCl. The filters are dried in a microwave oven then transferred to sample bag containing a scintillator sheet (Perkin Elmer catalog number 1450-441). The scintillator sheets are melted to the filters using a heat block. The filters are then read in a MicroBeta scintillation counter. Binding Ki curves are generated using Activity Base for Screening Data Management and the results are reported as pIC50.

Row | SMILES | EC50 (SSTR4 [1]) | IC50 (SSTR4 [2]) | IC50 (SSTR1)
1 | C[C@@H](C(=O)NC(C)(C)c1nccc2ccccc12)[C@@H]1CCCN1C (racemic) [Example 110, (R)-N-(2-(isoquinolin-1-yl)propan-2-yl)-2-((S)-1-methylpyrrolidin-2-yl)propanamide and (S)-N-(2-(isoquinolin-1-yl)propan-2-yl)-2-((R)-1-methylpyrrolidin-2-yl)propanamide] | 3.98 nM | 79.4 nM | 12600 nM
2 | C[C@@H](C(=O)NC(C)(C)c1nccc2ccccc12)[C@H]1CCCN1C (racemic) [Example 111, (R)-N-(2-(isoquinolin-1-yl)propan-2-yl)-2-((R)-1-methylpyrrolidin-2-yl)propanamide and (S)-N-(2-(isoquinolin-1-yl)propan-2-yl)-2-((S)-1-methylpyrrolidin-2-yl)propanamide] | 3.16 nM | 25.1 nM | 3980 nM
3 | Cc1cccc2c(C(C)(C)NC(=O)C[C@H]3CCCCN3C)nccc12 (single isomer, unassigned) [Example 8] | 2.51 nM | 50.1 nM | 3980 nM
4 | Cc1cccc2c(C(C)(C)NC(=O)C[C@@H]3CCCCN3C)nccc12 (single isomer, unassigned) [Example 9] | 12.6 nM | 126 nM | 7940 nM
5 | CN1CCCC[C@@H]1CC(=O)NC(C)(C)c1nccc2occc12 (single isomer, unassigned) [Example 14] | 6.31 nM | 79.4 nM | 25100 nM
6 | Cc1cccc2c(C(C)(C)NC(=O)C[C@H]3CCCCN3C)noc12 (single isomer, unassigned) [Example 43] | 2 nM | 20 nM | 3980 nM
7 | Cc1cccc2c(C(C)(C)NC(=O)C[C@@H]3CCCCN3C)noc12 (single isomer, unassigned) [Example 44] | 6.31 nM | 63.1 nM | 12600 nM
8 | COc1ccccc1C(C)(C)NC(=O)[C@H](C)CN1CCCC1 (single isomer, unassigned) [Example 75] | 2.51 nM | 31.6 nM | 10000 nM
9 | Cc1cccnc1OCC1(NC(=O)[C@H](C)[C@@H]2CCCN2C)CC1 (single isomer, unassigned) [Example 127] | 7.94 nM | 126 nM | 7940 nM
10 | CN1CCC[C@H]1CC(=O)NC(C)(C)[C@@H]1CCc2ccccc2O1 (single isomer, unassigned) [Example 128] | 39.8 nM | 316 nM | 10000 nM
11 | CN1CCC[C@@H]1CC(=O)NC(C)(C)[C@@H]1CCc2ccccc2O1 (single isomer, unassigned) [Example 131] | 50.1 nM | 251 nM | 12600 nM
12 | C[C@@H](CN1CCC1)C(=O)NC(C)(C)c1ccccc1Cl (single isomer, unassigned) [Example 134] | 1.26 nM | 50.1 nM | 6310 nM
13 | C[C@H](CN1CCCC1)C(=O)NC(C)(C)c1ccccc1Cl (single isomer, unassigned) [Example 136] | 6.31 nM | 126 nM | 10000 nM
14 | COc1ccc(C(C)(C)NC(=O)[C@H](C)CN2CCC2)cc1 (single isomer, unassigned) [Example 138] | 12.6 nM | 126 nM | 15800 nM
15 | Cc1ccccc1C(C)(C)NC(=O)[C@H](C)CN1CCC1 (single isomer, unassigned) [Example 140] | 6.31 nM | 50.1 nM | 12600 nM
16 | Cc1c(F)cccc1C(C)(C)NC(=O)[C@H](C)CN1CCC1 (single isomer, unassigned) [Example 142] | 1.58 nM | 15.8 nM | 2000 nM
17 | Cc1cccc(C(C)(C)NC(=O)[C@@H](C)CN2CCC2)c1Cl (single isomer, unassigned) [Example 145] | 0.794 nM | 20 nM | 1260 nM
18 | COc1c(C)cccc1C(C)(C)NC(=O)[C@H](C)CN1CCC1 (single isomer, unassigned) [Example 146] | 2.51 nM | 20 nM | 2510 nM
19 | Cc1ccc(C(C)(C)NC(=O)[C@@H](C)CN2CCC2)cc1 (single isomer, unassigned) [Example 149] | 3.16 nM | 50.1 nM | 6310 nM

Further lines, results first:

Row | EC50 (SSTR4 [1]) | IC50 (SSTR4 [2]) | IC50 (SSTR1) | SMILES
20 | 7.94 nM | 100 nM | 7940 nM | C[C@@H](CN1CCC1)C(=O)NC1(c2ccccc2F)CC1 (single isomer, unassigned) [Example 151]
21 | 3.98 nM | 79.4 nM | 6310 nM | C[C@@H](CN1CCC1)C(=O)NC(C)(C)c1cccc(F)c1 (single isomer, unassigned) [Example 153]
22 | 2.51 nM | 39.8 nM | 3160 nM | C[C@@H](CN1CCC1)C(=O)NC(C)(C)c1ccc(Cl)cc1 (single isomer, unassigned) [Example 155]
23 | 7.94 nM | 100 nM | 20000 nM | C[C@H](CN1CCC1)C(=O)NC(C)(C)c1ccccc1F (single isomer, unassigned) [Example 156]
24 | 2.51 nM | 316 nM | 39800 nM | O=C(CCN1CCC1)N[C@H](c1cc(F)ccc1F)C(F)F (single isomer, unassigned) [Example 169]
25 | 2 nM | 15.8 nM | 3980 nM | COc1c(F)cccc1C(C)(C)NC(=O)[C@H](C)CN1CCC1 (single isomer, unassigned) [Example 171]
26 | 20 nM | 158 nM | 31600 nM | Cc1ccc([C@H](CF)NC(=O)CCN2CCC2)cc1 (single isomer, unassigned) [Example 175]
27 | 0.158 nM | 6.31 nM | 1580 nM | C[C@H](CN1CCC1)C(=O)N[C@H](c1ccccc1)C(F)F (single isomer, unassigned) [Example 181]
28 | 1.58 nM | 12.6 nM | 1000 nM | CC[C@H](CN1CCC1)C(=O)NC(C)(C)c1ccc(F)cc1 (single isomer, unassigned) [Example 182]
29 | 50.1 nM | 501 nM | 20000 nM | CC[C@@H](CN1CCC1)C(=O)NC(C)(C)c1ccc(F)cc1 (single isomer, unassigned) [Example 183]
30 | 0.631 nM | 15.8 nM | 2000 nM | CC[C@H](CN1CCC1)C(=O)NC(C)(C)c1cccc(F)c1 (single isomer, unassigned) [Example 184]
31 | 0.794 nM | 20 nM | 1580 nM | CC[C@@H](CN1CCC1)C(=O)NC(C)(C)c1ccc(C)cc1 (single isomer, unassigned) [Example 187]
32 | 2 nM | 20 nM | 3160 nM | O=C(CCN1CCC1)NC(c1ccc(F)cc1)C(F)(F)F (single isomer, unassigned) [Example 190]
33 | 2 nM | 10 nM | 2510 nM | O=C(CCN1CCC1)NC(c1cccc(Cl)c1)C(F)(F)F (single isomer, unassigned) [Example 191]
34 | 15.8 nM | 126 nM | 31600 nM | O=C(CCN1CCC1)NC(c1cccc(Cl)c1)C(F)(F)F (single isomer, unassigned) [Example 192]
35 | 15.8 nM | 200 nM | 31600 nM | O=C(CCN1CCC1)NC(c1cccc(F)c1)C(F)(F)F (single isomer, unassigned) [Example 193]
